Target: CXCR4 (Homo sapiens, UniProt P61073)
Experiment: HPB-ALL CXCR4 competitive binding assay (12G5 binding assay)
Set-up: HPB-ALL cells were maintained in RPMI-1640 (Gibico) supplemented with 10% FBS (Hyclone); endogenous in cells; host or cells: HPB-ALL cells
Settings: HPB-ALL cells; competition with APC-conjugated anti-human CXCR4 clone 12G5 at its EC80; 4° C. for 3 h; FACS
Protocol: HPB-ALL CXCR4 Competitive Binding Assay
HPB-ALL cells were maintained in RPMI-1640 (Gibico) supplemented with 10% FBS (Hyclone). APC-conjugated anti-human CXCR4 was from Sungene. EC80 was first determined for 12G5 binding to CXCR4. Then the compounds for testing were added into 96-well plates serially diluted at a ratio of 1:3. Cells were washed once with ice-cold assay buffer (DPBS+2% HI-FBS) and then re-suspended in the same buffer at a final concentration of 1×10^6/mL. Cell suspension was then added into the wells and with the addition of APC-conjugated anti-human CXCR4 clone 12G5 at its EC80 determined. The mix of cell, compounds and APC-conjugated anti-human CXCR4 were incubated at 4° C. for 3 h before addition of 100 μL of 4% PFA. Cells were then washed once and resuspended in assay buffer and examined by FACS. The percent (%) effect at each concentration of compound was calculated and relative to the amount of calcium produced in the positive and negative control wells contained within each assay plate. The concentrations and % effect values for tested compounds were plotted and the concentration of compound required for 50% effect (IC50) was determined. Tables 2 summarize results of the CXCR4 competitive binding assay for selected compounds disclosed in the present disclosure. FIGS. 1-2 depict the IC50 curves of compounds A42 and A43.

Sequence of CXCR4 (P61073 whole entry): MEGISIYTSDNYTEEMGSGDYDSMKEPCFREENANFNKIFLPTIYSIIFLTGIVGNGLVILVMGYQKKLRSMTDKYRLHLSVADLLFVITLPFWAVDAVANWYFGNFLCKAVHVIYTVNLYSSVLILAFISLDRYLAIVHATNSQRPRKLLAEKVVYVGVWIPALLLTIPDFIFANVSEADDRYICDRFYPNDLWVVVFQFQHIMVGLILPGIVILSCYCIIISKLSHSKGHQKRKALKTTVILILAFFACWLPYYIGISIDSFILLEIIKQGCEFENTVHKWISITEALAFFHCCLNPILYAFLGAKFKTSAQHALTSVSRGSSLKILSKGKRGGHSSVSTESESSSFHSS

| Structure (SMILES) | IC50 [nM] |
| --- | --- |
| CN(C)CCN(C)c1cc(CN(C)C2CCCc3cccnc32)ncn1 (stereo not shown) [Compound A2] | 228 |
| CSc1nc(CN(C)C2CCCc3cccnc32)cc(N2CCN(C)CC2)n1 (stereo not shown) [Compound A3] | 19 |
| CC(c1ccccn1)N(C)Cc1cc(N2CCN(C)CC2)ncn1 (stereo not shown) [Compound A4] | 229 |
| CN(Cc1cc(N2CCN(CCO)CC2)ncn1)C1CCCc2cccnc21 (stereo not shown) [Compound A5] | 113 |
| COCCN1CCN(c2cc(CN(C)C3CCCc4cccnc43)ncn2)CC1 (stereo not shown) [Compound A6] | 1140 |
| CN(Cc1cc(N2CCNCC2)ncn1)C1CCCc2cccnc21 (stereo not shown) [Compound A7, N-methyl-N-((6-(piperazin-1-yl)pyrimidin-4-yl)methyl)-5,6,7,8-tetrahydroquinolin-8-amine] | 393 |
| CN(Cc1cc(N2CCN(CCC#N)CC2)ncn1)C1CCCc2cccnc21 (stereo not shown) [Compound A8, 3-(4-(6-((methyl(5,6,7,8-tetrahydroquinolin-8-yl)amino)methyl)pyrimidin-4-yl)piperazin-1-yl)propanenitrile] | 242 |
| Cc1nc(CN(C)C2CCCc3cccnc32)cc(N2CCN(C)CC2)n1 (stereo not shown) [Compound A9, N-methyl-N-((2-methyl-6-(4-methylpiperazin-1-yl)pyrimidin-4-yl)methyl)-5,6,7,8-tetrahydroquinolin-8-amine] | 14 |
| COc1nc(CN(C)C2CCCc3cccnc32)cc(N2CCN(C)CC2)n1 (stereo not shown) [Compound A10] | 23 |
| CN1CCN(c2cc(CN(C)C3CCCc4cccnc43)nc(C3CC3)n2)CC1 (stereo not shown) [Compound A11] | 26 |
| CN1CCN(c2cc(CN(C)C3CCCc4cccnc43)nc(N(C)C)n2)CC1 (stereo not shown) [Compound A12] | 8000 |
| CN1CCN(c2cc(CN(C)C3CCCc4cccnc43)nc(N3CCCC3)n2)CC1 (stereo not shown) [Compound A13] | 8000 |
| CN1CCN(c2cc(CN(C)C3CCCc4cccnc43)nc(N3CCOCC3)n2)CC1 (stereo not shown) [Compound A14] | 2250 |
| CN1CCN(c2cc(CN(C)C3CCCc4cccnc43)nc(N(C)CCO)n2)CC1 (stereo not shown) [Compound A15] | 606 |
| CN1CCN(c2cc(CN(C)C3CCCc4cccnc43)nc(N)n2)CC1 (stereo not shown) [Compound A16] | 17 |
| CN1CCN(c2cc(CN(C)C3CCCc4cccnc43)nc(-c3ccccc3)n2)CC1 (stereo not shown) [Compound A17] | 2690 |
| CNc1nc(CN(C)C2CCCc3cccnc32)cc(N2CCN(C)CC2)n1 (stereo not shown) [Compound A18] | 43 |
| CCNc1nc(CN(C)C2CCCc3cccnc32)cc(N2CCN(C)CC2)n1 (stereo not shown) [Compound A19] | 67 |
| CC(C)Nc1nc(CN(C)C2CCCc3cccnc32)cc(N2CCN(C)CC2)n1 (stereo not shown) [Compound A20] | 210 |
| CN1CCN(c2cc(CN(C)C3CCCc4cccnc43)nc(-c3cnn(C)c3)n2)CC1 (stereo not shown) [Compound A21] | 790 |
| CCN1CCN(c2cc(CN(C)C3CCCc4cccnc43)ncn2)CC1 (stereo not shown) [Compound A23] | 34 |
| CC(C)N1CCN(c2cc(CN(C)C3CCCc4cccnc43)ncn2)CC1 (stereo not shown) [Compound A24] | 42 |
| CN(C)C1CCN(c2cc(CN(C)C3CCCc4cccnc43)ncn2)CC1 (stereo not shown) [Compound A25] | 100 |
| CN(Cc1cc(NCCN2CCOCC2)ncn1)C1CCCc2cccnc21 (stereo not shown) [Compound A26] | 41 |

| Structure (SMILES) | IC50 [nM] |
| --- | --- |
| CSc1nc(CN(C)C2CCCc3cccnc32)c(C)c(N2CCN(C)CC2)n1 (stereo not shown) [Compound A27] | 7.9 |
| CCc1nc(CN(C)C2CCCc3cccnc32)cc(N2CCN(C)CC2)n1 (stereo not shown) [Compound A28] | 21 |
| CC(C)c1nc(CN(C)C2CCCc3cccnc32)cc(N2CCN(C)CC2)n1 (stereo not shown) [Compound A29] | 78 |
| CCOc1nc(CN(C)C2CCCc3cccnc32)cc(N2CCN(C)CC2)n1 (stereo not shown) [Compound A30] | 65 |
| CC(C)Oc1nc(CN(C)C2CCCc3cccnc32)cc(N2CCN(C)CC2)n1 (stereo not shown) [Compound A31] | 77 |
| CSc1nc([C@H](C)N(C)[C@H]2CCCc3cccnc32)cc(N2CCN(C)CC2)n1 [Compound A32] | 22 |
| CSc1nc([C@H](C)N(C)[C@@H]2CCCc3cccnc32)cc(N2CCN(C)CC2)n1 [Compound A33] | 268 |
| CSc1nc([C@@H](C)N(C)[C@H]2CCCc3cccnc32)cc(N2CCN(C)CC2)n1 [Compound A34] | 47 |
| CSc1nc([C@@H](C)N(C)[C@@H]2CCCc3cccnc32)cc(N2CCN(C)CC2)n1 [Compound A35] | 106 |
| CSc1nc(CN(C)C(CCCCNC(=O)OC(C)(C)C)c2ccccn2)cc(N2CCN(C)CC2)n1 (stereo not shown) [Compound A36] | 5730 |
| Cc1nc(CN(C)C(CCCNC(=O)OC(C)(C)C)c2ccccn2)cc(N2CCN(C)CC2)n1 (stereo not shown) [Compound A37] | 4430 |
| Cc1nc(CN(C)C(CCCN)c2ccccn2)cc(N2CCN(C)CC2)n1 (stereo not shown) [Compound A38] | 6940 |
| CN(C)C1CCN(c2cc(CN(C)C3CCCc4cccnc43)ncn2)C1 (stereo not shown) [Compound A39] | 94 |
| CSc1nc(CN(C)C2c3ncccc3CCC23CC3)cc(N2CCN(C)CC2)n1 (stereo not shown) [Compound A40] | 110 |
| Cc1nc(CN(C)C2c3ncccc3CCC23CC3)cc(N2CCN(C)CC2)n1 (stereo not shown) [Compound A41] | 97 |
| CCN1CCN(c2cc(CN(C)[C@H]3CCCc4cccnc43)nc(C)n2)CC1 [Compound A43] | 11 |
| CCN(Cc1cc(N2CCN(C)CC2)nc(C)n1)C1c2ncccc2CCC12CC2 (stereo not shown) [Compound A44] | 296 |
| CCN1CCN(c2cc(CN(C)C3c4ncccc4CCC34CC4)nc(C)n2)CC1 (stereo not shown) [Compound A45] | 886 |
| Cc1nc(CN(C)C2CC3(CC3)Cc3cccnc32)cc(N2CCN(C)CC2)n1 (stereo not shown) [Compound A46] | 161 |
| Cc1nc(CN(C)[C@H]2CCCc3cccnc32)cc(N2CCN(C3CC3)CC2)n1 [Compound A47] | 58 |
| CN1CCN(c2cc(CN(C)[C@H]3CCCc4cccnc43)nc(C(F)(F)F)n2)CC1 [Compound A48] | 240 |
| Cc1nc(CN(C)[C@H]2CCCc3cccnc32)cc(N2CCN(C3COC3)CC2)n1 [Compound A49] | 123 |
| CN1CCN(c2ccnc(CN(C)C3CCCc4cccnc43)n2)CC1 (stereo not shown) [Compound A50, N-methyl-N-((4-(4-methylpiperazin-1-yl)pyrimidin-2-yl)methyl)-5,6,7,8-tetrahydroquinolin-8-amine] | 211 |
| Cc1nc(CN(C)C2CCCc3cccnc32)c(F)c(N2CCN(C)CC2)n1 (stereo not shown) [Compound A51] | 16 |

| Structure (SMILES) | IC50 [nM] |
| --- | --- |
| Cc1nc(CN(C)C(C)c2ccccn2)cc(N2CCN(C)CC2)n1 (stereo not shown) [Compound A52] | 27 |
| Cc1nc(CN(C)C(C)c2ncccc2C)cc(N2CCN(C)CC2)n1 (stereo not shown) [Compound A53] | 33 |
| Cc1ccnc(C(C)N(C)Cc2cc(N3CCN(C)CC3)nc(C)n2)c1 (stereo not shown) [Compound A54] | 356 |
| Cc1ccc(C(C)N(C)Cc2cc(N3CCN(C)CC3)nc(C)n2)nc1 (stereo not shown) [Compound A55] | 44 |
| Cc1cccc(C(C)N(C)Cc2cc(N3CCN(C)CC3)nc(C)n2)n1 (stereo not shown) [Compound A56] | 131 |
| CCN(Cc1cc(N2CCN(C)CC2)nc(C)n1)C1CCCc2cccnc21 (stereo not shown) [Compound A57] | 21 |
| CCN(Cc1cc(N2CCN(C)CC2)nc(C)n1)[C@H]1CCCc2cccnc21 [Compound A58] | 19 |
| Cc1nc(CN(CC2CC2)C2CCCc3cccnc32)cc(N2CCN(C)CC2)n1 (stereo not shown) [Compound A59] | 63 |
| CN(Cc1cc(N2CCN(CC3CC3)CC2)ncn1)C1CCCc2cccnc21 (stereo not shown) [Compound A60] | 464 |
| Cc1nc(CN(C)C(C)(C)c2ccccn2)cc(N2CCN(C)CC2)n1 [Compound A62] | 2290 |
| Cc1nc(CN(C)[C@H]2CCCc3cccnc32)cc(N2CCN(C)C[C@H]2C)n1 [Compound A63, (S)-N-((6-((R)-2,4-dimethylpiperazin-1-yl)-2-methylpyrimidin-4-yl)methyl)-N-methyl-5,6,7,8-tetrahydroquinolin-8-amine] | 29 |
| Cc1nc(CN(C)[C@H]2CCCc3cccnc32)cc(N2CCN(C)C[C@@H]2C)n1 [Compound A64] | 21 |
| Cc1nc(CN(C)[C@H]2CCCc3cccnc32)cc(N2CCN(C)[C@H](C)C2)n1 [Compound A65] | 13 |
| Cc1nc(CN(C)[C@H]2CCCc3cccnc32)cc(N2CCN(C)[C@@H](C)C2)n1 [Compound A66] | 20 |
| Cc1nc(CN(C)[C@H]2CCCc3cccnc32)cc(N2C[C@@H](C)N(C)[C@@H](C)C2)n1 [Compound A67] | 12 |
| Cc1nc(CN(C)[C@H]2CCCc3cccnc32)cc(N2CCN3CCC[C@@H]3C2)n1 [Compound A68] | 46 |
| Cc1nc(CN(C)[C@H]2CCCc3cccnc32)cc(N2CCN3CCC[C@H]3C2)n1 [Compound A69] | 27 |
| Cc1nc(CN(C)[C@H]2CCCc3cccnc32)cc(NCCCN2CCOCC2)n1 [Compound A70] | 54 |
| Cc1nc(CN(C)[C@H]2CCCc3cccnc32)cc(NCCN2CCOCC2)n1 [Compound A71] | 90 |
| Cc1nc(CN(C)[C@H]2CCCc3cccnc32)cc(N2CCC(N3CCOCC3)CC2)n1 [Compound A72] | 146 |
| Cc1nc(CN(C)[C@H]2CCCc3cccnc32)cc(N2CCN(C)CC2CO)n1 (stereo partly shown) [Compound A73] | 32 |
| Cc1nc(CN(C)[C@H]2CCCc3cccnc32)cc(N2CCC(N3CCN(C)CC3)CC2)n1 [Compound A74] | 100 |
